Laboratory results from US9125913B2, “Bcl-2-selective apoptosis-inducing agents for the treatment of cancer and immune diseases” (AbbVie Inc., priority 2008, dated 2015).

How the values were obtained:
[1] = test system: GST-Bcl-2; experiment: TR-FRET binding assay, Bcl-2; settings: TR-FRET Ki values
How it was run: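 Ki values come from Wang's competitive-binding equation applied to TR-FRET signal (excitation 340/35 nm; emission 520/525 nm F-Bak peptide, 495/510 nm Tb antibody). Protein, probe and antibody incubated with compound 3 h at room temperature; dilution series began at 50 μM as 2× stock in 10% DMSO.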

[2] = test system: FL5.12/Bcl-2 cells; experiment: FL5.12/Bcl-2 cell viability assay; type: cell-based, murine; settings: ratio of canine platelet EC50 to FL5.12/Bcl-2 EC50
From the text: FL5.12 is an IL-3 dependent prolymphocytic murine cell line that undergoes apoptosis upon IL-3 withdrawal as a result of the upregulation of pro-apoptotic Bcl-2 proteins such as Bim and Puma. Stable overexpression of anti-apoptotic Bcl-2 protein (FL5.12/Bcl-2) protects against apoptosis induced by IL-3 withdrawal by sequestration of Bim and Puma. […] The ability of compounds to kill FL5.12/Bcl-2 cells upon IL-3 withdrawal is a direct measure of the compounds' ability to inhibit anti-apoptotic Bcl-2 protein function.
Wild type FL5.12/Bcl-2 overexpressing stable transfectants were cultured in RPMI-1640 supplemented with 2 mM L-glutamine, 10% FBS, 1 mM sodium pyruvate, 2 mM HEPES, 1% penicillin/streptomycin (Invitrogen), 57 μM β-ME, and 10% WEHI-3B conditioned medium (source of IL-3) and maintained at 37° C. containing 5% CO2. 1×10^6 cells/ml were washed 1×PBS and resuspended in medium not supplemented with 10% WEHI-3B for 48 hrs prior to cytotoxicity assays. Cells were then treated for an additional 24 hrs in the presence of various concentrations of the indicated compounds. Cell viability was assessed by CellTitre Glo assay (Promega Corp.) according to the manufacturer's recommendations.

Compound | Binding selectivity ratio (Bcl-XL Ki/Bcl-2 Ki) [1] | Selectivity Ratio (Platelet EC50/FL5.12/Bcl-2 EC50) [2]
CN1CCC(Nc2ccc(S(=O)(=O)NC(=O)c3ccc(N4CCN(CC5=C(c6ccc(Cl)cc6)CC(C)(C)CC5)CC4)cc3Oc3ccc4[nH]ccc4c3)cc2[N+](=O)[O-])CC1 [Example 98, 4-(4-{[2-(4-chlorophenyl)-4,4-dimethylcyclohex-1-en-1-yl]methyl}piperazin-1-yl)-2-(1H-indol-5-yloxy)-N-({4-[(1-methylpiperidin-4-yl)amino]-3-nitrophenyl}sulfonyl)benzamide] | >50769.2 | 4849
O=C(NS(=O)(=O)c1ccc(NCC2CCOCC2)c([N+](=O)[O-])c1)c1ccc(N2CCN(Cc3cc(OCCN4CCCC4)ccc3-c3ccc(Cl)cc3)CC2)cc1Oc1ccccc1 [Example 138, 4-(4-{[4′-chloro-4-(2-pyrrolidin-1-ylethoxy)-1,1′-biphenyl-2-yl]methyl}piperazin-1-yl)-N-({3-nitro-4-[(tetrahydro-2H-pyran-4-ylmethyl)amino]phenyl}sulfonyl)-2-phenoxybenzamide] | 574.9 | 616
CC1(C)CCC(CN2CCN(c3ccc(C(=O)NS(=O)(=O)c4ccc(NCCCN5CCCC5)c([N+](=O)[O-])c4)c(Oc4cccc5[nH]ccc45)c3)CC2)=C(c2ccc(F)cc2)C1 [Example 73, 4-(4-{[2-(4-fluorophenyl)-4,4-dimethylcyclohex-1-en-1-yl]methyl}piperazin-1-yl)-2-(1H-indol-4-yloxy)-N-({3-nitro-4-[(3-pyrrolidin-1-ylpropyl)amino]phenyl}sulfonyl)benzamide] | 9.9 | 166
CN(C)CCOc1ccc(-c2ccc(Cl)cc2)c(CN2CCN(c3ccc(C(=O)NS(=O)(=O)c4ccc(NC5CCN(C)CC5)c([N+](=O)[O-])c4)c(Oc4ccccc4)c3)CC2)c1 [Example 133, 4-[4-({4′-chloro-4-[2-(dimethylamino)ethoxy]-1,1′-biphenyl-2-yl}methyl)piperazin-1-yl]-N-({4-[(1-methylpiperidin-4-yl)amino]-3-nitrophenyl}sulfonyl)-2-phenoxybenzamide] | 31.2 | 5
CC1(C)CCC(CN2CCN(c3ccc(C(=O)NS(=O)(=O)c4ccc(NCCCN5CCCC5)c([N+](=O)[O-])c4)c(Oc4cccc5[nH]ccc45)c3)CC2)=C(c2ccc(OC(F)(F)F)cc2)C1 [Example 70, 4-[4-({4,4-dimethyl-2-[4-(trifluoromethoxy)phenyl]cyclohex-1-en-1-yl}methyl)piperazin-1-yl]-2-(1H-indol-4-yloxy)-N-({3-nitro-4-[(3-pyrrolidin-1-ylpropyl)amino]phenyl}sulfonyl)benzamide] | 62.4 | >450
CN1CCC(CNc2ccc(S(=O)(=O)NC(=O)c3ccc(N4CCN(CC5=C(c6ccc(Cl)cc6)CC(C)(C)CC5)CC4)cc3Oc3ccc4[nH]ccc4c3)cc2[N+](=O)[O-])(N(C)C)CC1 [Example 109, 4-(4-{[2-(4-chlorophenyl)-4,4-dimethylcyclohex-1-en-1-yl]methyl}piperazin-1-yl)-N-{[4-({[4-(dimethylamino)-1-methylpiperidin-4-yl]methyl}amino)-3-nitrophenyl]sulfonyl}-2-(1H-indol-5-yloxy)benzamide] | >4099.4 | >1404
CN(C)CCCNc1ccc(S(=O)(=O)NC(=O)c2ccc(N3CCN(CC4=C(c5ccc(Cl)cc5)CC(C)(C)CC4)CC3)cc2Oc2ccc3[nH]ccc3c2)cc1C(F)(F)F [Example 171, 4-(4-{[2-(4-chlorophenyl)-4,4-dimethylcyclohex-1-en-1-yl]methyl}piperazin-1-yl)-N-{[4-{[3-(dimethylamino)propyl]amino}-3-(trifluoromethyl)phenyl]sulfonyl}-2-(1H-indol-5-yloxy)benzamide] | 17.7 | >181
CN(C)CCCNc1ccc(S(=O)(=O)NC(=O)c2ccc(N3CCN(Cc4ccccc4-c4ccc(Cl)cc4)CC3)cc2Oc2ccccc2)cc1[N+](=O)[O-] [Example 154, 4-{4-[(4′-chloro-1,1′-biphenyl-2-yl)methyl]piperazin-1-yl}-N-[(4-{[3-(dimethylamino)propyl]amino}-3-nitrophenyl)sulfonyl]-2-phenoxybenzamide] | 40.4 | 343
CN1CCC(Nc2ccc(S(=O)(=O)NC(=O)c3ccc(N4CCN(CC5=C(c6ccc(Cl)cc6)CCCCC5)CC4)cc3Oc3cccc4[nH]ccc34)cc2[N+](=O)[O-])CC1 [Example 147, 4-(4-{[2-(4-chlorophenyl)cyclohept-1-en-1-yl]methyl}piperazin-1-yl)-2-(1H-indol-4-yloxy)-N-({4-[(1-methylpiperidin-4-yl)amino]-3-nitrophenyl}sulfonyl)benzamide] | >1284.0 | 1895
CC1(C)CCC(CN2CCN(c3ccc(C(=O)NS(=O)(=O)c4ccc(NCCCN5CCOCC5)c([N+](=O)[O-])c4)c(Oc4ccccc4)c3)CC2)=C(c2ccc(Cl)cc2)C1 [Example 18, 4-(4-{[2-(4-chlorophenyl)-4,4-dimethylcyclohex-1-en-1-yl]methyl}piperazin-1-yl)-N-({4-[(3-morpholin-4-ylpropyl)amino]-3-nitrophenyl}sulfonyl)-2-phenoxybenzamide] | 34.2 | 241
CN(C)CCCNc1ccc(S(=O)(=O)NC(=O)c2ccc(N3CCN(Cc4ccccc4-c4ccc(Cl)cc4)CC3)cc2Oc2cccc3[nH]ccc23)cc1[N+](=O)[O-] [Example 46, 4-{4-[(4′-chloro-1,1′-biphenyl-2-yl)methyl]piperazin-1-yl}-N-[(4-{[3-(dimethylamino)propyl]amino}-3-nitrophenyl)sulfonyl]-2-(1H-indol-4-yloxy)benzamide] | 119.2 | 725
CN1CCC(Nc2ccc(S(=O)(=O)NC(=O)c3ccc(N4CCN(CC5=C(c6ccc(Cl)cc6)CCCC5)CC4)cc3Oc3ccc4[nH]ccc4c3)cc2[N+](=O)[O-])CC1 [Example 75, 4-(4-{[2-(4-chlorophenyl)cyclohex-1-en-1-yl]methyl}piperazin-1-yl)-2-(1H-indol-5-yloxy)-N-({4-[(1-methylpiperidin-4-yl)amino]-3-nitrophenyl}sulfonyl)benzamide] | 852.2 | 821
O=C(NS(=O)(=O)c1ccc(NCCCN2CCCC2)c([N+](=O)[O-])c1)c1ccc(N2CCN(Cc3cc(OCCN4CCOCC4)ccc3-c3ccc(Cl)cc3)CC2)cc1Oc1ccc2[nH]ccc2c1 [Example 136, 4-(4-{[4′-chloro-4-(2-morpholin-4-ylethoxy)-1,1′-biphenyl-2-yl]methyl}piperazin-1-yl)-2-(1H-indol-5-yloxy)-N-({3-nitro-4-[(3-pyrrolidin-1-ylpropyl)amino]phenyl}sulfonyl)benzamide] | 238.9 | >263
CN1CCC(Nc2ccc(S(=O)(=O)NC(=O)c3ccc(N4CCN(CC5=C(c6ccc(Cl)cc6)CCCCC5)CC4)cc3Oc3ccc4[nH]ccc4c3)cc2[N+](=O)[O-])CC1 [Example 151, 4-(4-{[2-(4-chlorophenyl)cyclohept-1-en-1-yl]methyl}piperazin-1-yl)-2-(1H-indol-5-yloxy)-N-({4-[(1-methylpiperidin-4-yl)amino]-3-nitrophenyl}sulfonyl)benzamide] | >4074.1 | 642
CN1CCC(Nc2ccc(S(=O)(=O)NC(=O)c3ccc(N4CCN(CC5=C(c6ccc(Cl)cc6)CCCCCC5)CC4)cc3Oc3cccc4[nH]ccc34)cc2[N+](=O)[O-])CC1 [Example 146, 4-(4-{[2-(4-chlorophenyl)cyclooct-1-en-1-yl]methyl}piperazin-1-yl)-2-(1H-indol-4-yloxy)-N-({4-[(1-methylpiperidin-4-yl)amino]-3-nitrophenyl}sulfonyl)benzamide] | >14.9 | 145
O=C(NS(=O)(=O)c1ccc(NCC2CCOCC2)c([N+](=O)[O-])c1)c1ccc(N2CCN(Cc3cc(CN4CCCC4)ccc3-c3ccc(Cl)cc3)CC2)cc1Oc1cccc2[nH]ccc12 [Example 24, 4-(4-{[4′-chloro-4-(pyrrolidin-1-ylmethyl)-1,1′-biphenyl-2-yl]methyl}piperazin-1-yl)-2-(1H-indol-4-yloxy)-N-({3-nitro-4-[(tetrahydro-2H-pyran-4-ylmethyl)amino]phenyl}sulfonyl)benzamide] | >3402.1 | >906
O=C(NS(=O)(=O)c1ccc(NCC2CCOCC2)c([N+](=O)[O-])c1)c1ccc(N2CCN(Cc3c(OCCN4CCOCC4)cccc3-c3ccc(Cl)cc3)CC2)cc1Oc1ccc2[nH]ccc2c1 [Example 132, 4-(4-{[4′-chloro-3-(2-morpholin-4-ylethoxy)-1,1′-biphenyl-2-yl]methyl}piperazin-1-yl)-2-(1H-indol-5-yloxy)-N-({3-nitro-4-[(tetrahydro-2H-pyran-4-ylmethyl)amino]phenyl}sulfonyl)benzamide] | 570.1 | >1196
